Values joined by “and” are separate entries in the source; they are usually repeats but may differ in a detail not shown here. Identical values can stand only once. Like-named read-outs stand apart in the source and are kept apart here.
Experiments:
[1] = tested on: WBC count and circulating CD34+ progenitor/stem cells; conditions: single dose of 80 μg/kg, cited from earlier work
progenitor cells = conditions: AMD3100 5 mg/Kg s.c. + MIP-1α 5 μg I.V., 11 hours after rhu G-CSF or saline, 1 hour before blood
Experimental: Groups of mice were randomized to receive control diluent (saline) or G-CSF at a dose of 2.5 μg per mouse, twice a day, for two days via s.c. injection. […] One hour later, the mice were sacrificed and the number of progenitor cells per mL of blood were measured.

[2] = tested on: granulocyte macrophage (CFU-GM), erythroid (BFU-E), and multipotential (CFU-GEMM) progenitor cells; conditions: for Absolute Number Progenitors Per ML Blood, BFU-E / Absolute Number Progenitors Per ML Blood, CFU-GEMM / Absolute Number Progenitors Per ML Blood, CFU-GM: 1 hour post administration; for Absolute Progenitors Per ML Blood, BFU-E / Absolute Progenitors Per ML Blood, CFU-GEMM / Absolute Progenitors Per ML Blood, CFU-GM: 5 mg/Kg single s.c.; for Absolute Progenitors Per ML Blood, BFU-E / Absolute Progenitors Per ML Blood, CFU-GEMM / Absolute Progenitors Per ML Blood, CFU-GM / Fold Change Compared to Time 0, progenitors BFU-E / Fold Change Compared to Time 0, progenitors CFU-GEMM / Fold Change Compared to Time 0, progenitors GM: methylcellulose culture
Experimental: Progenitors were stimulated to form colonies in vitro with the combination of 1 U/ml rhu Epo, 50 ng/ml rhu SLF, 5% Vol/Vol pokeweed mitogen mouse spleen cell conditioned medium (PWMSCM), and 0.1 mm hemin. Plates were scored 7 days after incubation.

[3] = tested on: white blood cells, CD34 positive progenitor cells, CFU-GM, BFU-E, CFU-GEMM progenitor cells
Experimental: Five healthy human volunteers having initial white blood cell counts of 4,500-7,500 cells/mm^3 were used in the study. […] Blood samples were obtained via catheter prior to the dose, and at various times up to 24 hours after dosing.
The blood samples were evaluated for total white blood cells, CD34 positive progenitor cells (via FACS analysis) as a percentage of total white blood cells, as well as the absolute numbers per mL and cycling status of granulocyte macrophage (CFU-GM), erythroid (BFU-E), and multipotential (CFU-GEMM) progenitor cells.
All progenitor cell results are based on the scoring of 3 culture plates per assay per point.
For the progenitor cell numbers and cycling status, the numbers of CFU-GM, BFU-E and CFU-GEMM in methylcellulose cultures by stimulation of the cells with 1 Unit (U)/ml recombinant human (rhu) erythropoietin, 100 U/ml rhu granulocyte-macrophage colony stimulating factor (GM-CSF), 100 U/ml rhu interleukin-3 (IL-3) and 50 ng/ml rhu steel factor (SLF=stem cell factor (SCF)). The CFU-GM were also evaluated in agar cultures stimulated with 100 U/ml rhu GM-CSF and 50 ng/ml rhu SLF. For both types of assays, colonies were scored after 14 day incubation in a humidified atmosphere with 5% CO2 and lowered (5%) O2 tension. Cell cycling status of progenitors was measured using a high specific activity tritiated thymidine kill technique as previously described (Broxmeyer, H. E., et al., Exp. Hematol. (1989) 17:455-459).

WBC counts = conditions: human, in vivo
bone marrow stem cells = conditions: administered within hours after coronary ligation, with or without rhG-CSF
Experimental: Adult rats are anesthetized and a thoracotomy is performed. The descending branch of the left coronary artery is ligated and not reperfused. […] Control rats are not treated with the reagents. The animals are monitored at one-week intervals by echocardiography and MRI. The experiment is terminated at 2, 6 to 12 weeks post-surgery. On the day of sacrifice, the hemodynamic functions are analyzed for left ventricle-end diastolic pressure, left ventricle-developed pressure and the rate of rise and fall of left ventricle pressure. The heart is then arrested in diastole and perfused via the abdominal aorta to flush residual blood from the vascular network of the myocardium. This is followed by perfusion of the heart with 10% formalin. Several slices are made through the fixed heart and these are embedded in paraffin and sections. The sections are stained and analyzed by light microscopy to determine the size of the infarct in the treated and control animals. Tissue sections from hearts taken at 2 weeks after surgery are stained with antibodies specific for immature, developing myocyte and blood vessel proteins and analyzed by confocal microscopy. The immunohistochemical analysis involves the identification of transcription factors and surface markers expressed in early stages of myocyte development.

[4] = T = 1 hours after injection, average of 5 donors

Experimental for white blood cell count: Eleven human patients having initial white blood cell counts of 4,000-6,500 cells/mm^3 were used in the study. […] Aliquots from this stock solution were added to 50-ml bags of 0.9% saline for intravenous injection in amounts to achieve the desired dosage levels (10 μg/kg-80 μg/kg).
The subjects described in this Example already contained an indwelling peripheral intravenous catheter. […] Blood samples were obtained prior to the dose, and at various times up to 24 hours after dose administration.
Three patients were administered dosages of 10 μg/kg (open circles); 3 patients were administered dosages of 20 μg/kg (solid circles); 3 patients were administered 40 μg/kg (open triangles); and 2 patients were administered 80 μg/kg (closed triangles).

SMILES: c1cc(CN2CCCNCCNCCCNCC2)ccc1CN1CCCNCCNCCCNCC1 [AMD3100, 1,1′-[1,4-phenylenebis(methylene)]-bis-1,4,8,11-tetra-azacyclotetradecane]
- Peak increase in circulating CD34+ progenitor/stem cells ([1]; 6 hour time point): 6 fold
- WBC count [1]: 17,000 /μl
- Mobilization of progenitor cells in combination with mu MIP-1α (progenitor cells): additive to greater than additive
- Absolute Number Progenitors Per ML Blood, BFU-E ([2]; 1 mg/kg single s.c.): 62 Per ML Blood
- Absolute Number Progenitors Per ML Blood, CFU-GEMM ([2]; 1 mg/kg single s.c.): 27.1 Per ML Blood
- Absolute Number Progenitors Per ML Blood, CFU-GM ([2]; 1 mg/kg single s.c.): 424 Per ML Blood
- Absolute Number Progenitors Per ML Blood, BFU-E ([2]; 2.5 mg/kg single s.c.): 98.9 Per ML Blood
- Absolute Number Progenitors Per ML Blood, CFU-GEMM ([2]; 2.5 mg/kg single s.c.): 70.6 Per ML Blood
- Absolute Number Progenitors Per ML Blood, CFU-GM ([2]; 2.5 mg/kg single s.c.): 687.6 Per ML Blood
- Absolute Progenitors Per ML Blood, BFU-E ([2]; 15″): 134.5 Per ML Blood
- Absolute Progenitors Per ML Blood, CFU-GEMM ([2]; 15″): 90.4 Per ML Blood
- Absolute Progenitors Per ML Blood, CFU-GM ([2]; 15″): 791.6 Per ML Blood
- Absolute Progenitors Per ML Blood, BFU-E ([2]; 30″): 209.3 Per ML Blood
- Absolute Progenitors Per ML Blood, CFU-GEMM ([2]; 30″): 113.5 Per ML Blood
- Absolute Progenitors Per ML Blood, CFU-GM ([2]; 30″): 1805.5 Per ML Blood
- Absolute Progenitors Per ML Blood, BFU-E ([2]; 120″): 102.3 Per ML Blood
- Absolute Progenitors Per ML Blood, CFU-GEMM ([2]; 120″): 47.6 Per ML Blood
- Absolute Progenitors Per ML Blood, CFU-GM ([2]; 120″): 828.7 Per ML Blood
- Absolute Number Progenitors Per ML Blood, BFU-E ([2]; 5 mg/kg single s.c.): 92.8 Per ML Blood
- Absolute Number Progenitors Per ML Blood, CFU-GEMM ([2]; 5 mg/kg single s.c.): 69.5 Per ML Blood
- Absolute Number Progenitors Per ML Blood, CFU-GM ([2]; 5 mg/kg single s.c.): 608.4 Per ML Blood
- Absolute Number Progenitors Per ML Blood, BFU-E ([2]; 10 mg/kg single s.c.): 120.5 Per ML Blood
- Absolute Number Progenitors Per ML Blood, CFU-GEMM ([2]; 10 mg/kg single s.c.): 79.8 Per ML Blood
- Absolute Number Progenitors Per ML Blood, CFU-GM ([2]; 10 mg/kg single s.c.): 825.6 Per ML Blood
- Fold Change Compared to Time 0, progenitors BFU-E ([2]; Time 2′): 2.07 fold
- Fold Change Compared to Time 0, progenitors CFU-GEMM ([2]; Time 2′): 1.85 fold
- Fold Change Compared to Time 0, progenitors GM ([2]; Time 2′): 2.86 fold
- Fold Change Compared to Time 0, progenitors BFU-E ([2]; Time 15″): 2.72 fold
- Fold Change Compared to Time 0, progenitors CFU-GEMM ([2]; Time 15″): 3.51 fold
- Fold Change Compared to Time 0, progenitors GM ([2]; Time 15″): 2.73 fold
- Fold Change Compared to Time 0, progenitors BFU-E ([2]; Time 30″): 4.24 fold
- Fold Change Compared to Time 0, progenitors CFU-GEMM ([2]; Time 30″): 4.41 fold
- Fold Change Compared to Time 0, progenitors GM ([2]; Time 30″): 6.23 fold
- Time of maximal elevation of white blood cell count and CD34 positive progenitor cells post-administration ([3]; 80 μg/kg single s.c.): 6 h
- Mobilization of white blood cells in individual volunteers ([3]; 80 μg/kg single s.c., 2 Hr, volunteers P1-P5): 12.4 ×10^3 WBC's and 21.4 ×10^3 WBC's and 13.5 ×10^3 WBC's
- % CHG, CFU-GEMM, methylcellulose culture ([3]; T = 1, average of 5 donors): 131.8%
- % CHG, CFU-GM, agar culture ([3]; T = 1, average of 5 donors): 180.8%
- % CHG, CFU-GM, methylcellulose culture ([3]; T = 1, average of 5 donors): 376.7%
- Fold change, BFU-E, methylcellulose culture, MEAN ([3]; T = 1, average of 5 donors): 1.99 fold
- Fold change, CFU-GEMM, methylcellulose culture, MEAN ([3]; T = 1, average of 5 donors): 2.32 fold
- Fold change, CFU-GM, agar culture, MEAN ([3]; T = 1, average of 5 donors): 2.81 fold
- Fold change, CFU-GM, methylcellulose culture, MEAN ([3]; T = 1, average of 5 donors): 4.77 fold
- % CHG, BFU-E, methylcellulose culture ([3]; T = 3, average of 5 donors): 221.3%
- % CHG, CFU-GEMM, methylcellulose culture ([3]; T = 3, average of 5 donors): 332.5%
- % CHG, CFU-GM, agar culture ([3]; T = 3, average of 5 donors): 754.1%
- % CHG, CFU-GM, methylcellulose culture ([3]; T = 3, average of 5 donors): 1266.5%
- % CHG, nucleated cellularity PBL-LD ([3]; T = 3, average of 5 donors): 185.6%
- % CHG, nucleated cellularity PBL-US ([3]; T = 3, average of 5 donors): 180.2%
- Fold change compared to TIME = 0, nucleated cellularity PBL-LD, MEAN ([3]; T = 3, average of 5 donors): 2.86 fold
- Fold change compared to TIME = 0, nucleated cellularity PBL-US, MEAN ([3]; T = 3, average of 5 donors): 2.80 fold
- Fold change, BFU-E, methylcellulose culture, MEAN ([3]; T = 3, average of 5 donors): 3.21 fold
- Fold change, CFU-GEMM, methylcellulose culture, MEAN ([3]; T = 3, average of 5 donors): 4.33 fold
- Fold change, CFU-GM, agar culture, MEAN ([3]; T = 3, average of 5 donors): 8.54 fold
- Fold change, CFU-GM, methylcellulose culture, MEAN ([3]; T = 3, average of 5 donors): 13.66 fold
- % CHG, BFU-E, methylcellulose culture ([3]; T = 6, average of 5 donors): 500.5%
- % CHG, CFU-GEMM, methylcellulose culture ([3]; T = 6, average of 5 donors): 907.2%
- % CHG, CFU-GM, agar culture ([3]; T = 6, average of 5 donors): 1692.8%
- % CHG, CFU-GM, methylcellulose culture ([3]; T = 6, average of 5 donors): 2070.6%
- % CHG, nucleated cellularity PBL-LD ([3]; T = 6, average of 5 donors): 266.3%
- % CHG, nucleated cellularity PBL-US ([3]; T = 6, average of 5 donors): 225.8%
- Fold change compared to TIME = 0, nucleated cellularity PBL-LD, MEAN ([3]; T = 6, average of 5 donors): 3.66 fold
- Fold change compared to TIME = 0, nucleated cellularity PBL-US, MEAN ([3]; T = 6, average of 5 donors): 3.26 fold
- Fold change, BFU-E, methylcellulose culture, MEAN ([3]; T = 6, average of 5 donors): 6.01 fold
- Fold change, CFU-GEMM, methylcellulose culture, MEAN ([3]; T = 6, average of 5 donors): 10.07 fold
- Fold change, CFU-GM, agar culture, MEAN ([3]; T = 6, average of 5 donors): 17.93 fold
- Fold change, CFU-GM, methylcellulose culture, MEAN ([3]; T = 6, average of 5 donors): 21.71 fold
- % CHG, BFU-E, methylcellulose culture ([3]; T = 9, average of 5 donors): 334.4%
- % CHG, CFU-GEMM, methylcellulose culture ([3]; T = 9, average of 5 donors): 425.4%
- % CHG, CFU-GM, methylcellulose culture ([3]; T = 9, average of 5 donors): 947.3%
- % CHG, nucleated cellularity PBL-LD ([3]; T = 9, average of 5 donors): 264.3%
- % CHG, nucleated cellularity PBL-US ([3]; T = 9, average of 5 donors): 209.4%
- Fold change compared to TIME = 0, nucleated cellularity PBL-LD, MEAN ([3]; T = 9, average of 5 donors): 3.64 fold
- Fold change compared to TIME = 0, nucleated cellularity PBL-US, MEAN ([3]; T = 9, average of 5 donors): 3.09 fold
- Fold change, BFU-E, methylcellulose culture, MEAN ([3]; T = 9, average of 5 donors): 4.34 fold
- Fold change, CFU-GEMM, methylcellulose culture, MEAN ([3]; T = 9, average of 5 donors): 5.25 fold
- Fold change, CFU-GM, methylcellulose culture, MEAN ([3]; T = 9, average of 5 donors): 10.47 fold
- % CHG, CFU-GM, agar culture ([3]; T = 9, average of donors): 924.9%
- Fold change, CFU-GM, agar culture, MEAN ([3]; T = 9, average of donors): 10.25 fold
- % CHG, BFU-E, methylcellulose culture ([3]; T = 24, average of 5 donors): 26.3%
- % CHG, CFU-GEMM, methylcellulose culture ([3]; T = 24, average of 5 donors): 53.2%
- % CHG, CFU-GM, methylcellulose culture ([3]; T = 24, average of 5 donors): 55.5%
- % CHG, nucleated cellularity PBL-US ([3]; T = 24, average of 5 donors): 7.0%
- Fold change compared to TIME = 0, nucleated cellularity PBL-LD, MEAN ([3]; T = 24, average of 5 donors): 1.05 fold
- Fold change compared to TIME = 0, nucleated cellularity PBL-US, MEAN ([3]; T = 24, average of 5 donors): 1.07 fold
- Fold change, BFU-E, methylcellulose culture, MEAN ([3]; T = 24, average of 5 donors): 1.26 fold
- Fold change, CFU-GEMM, methylcellulose culture, MEAN ([3]; T = 24, average of 5 donors): 1.53 fold
- Fold change, CFU-GM, methylcellulose culture, MEAN ([3]; T = 24, average of 5 donors): 1.56 fold
- % CHG, CFU-GM, agar culture ([3]; T = 24, average of donors): 108.3%
- Fold change, CFU-GM, agar culture, MEAN ([3]; T = 24, average of donors): 2.08 fold
- % CHG, nucleated cellularity PBL-LD [3, 4]: 86.2%
- % CHG, nucleated cellularity PBL-US [3, 4]: 68.6%
- Fold change compared to TIME = 0, nucleated cellularity PBL-LD, MEAN [3, 4]: 1.86 fold
- Fold change compared to TIME = 0, nucleated cellularity PBL-US, MEAN [3, 4]: 1.69 fold
- Time of maximal fold increases in circulating levels of progenitor cells after injection ([3]; all five donors): 6 h
- Time until WBC counts returned to baseline after discontinuation of the infusion (WBC counts): 7 days
- Change of white blood cell count (white blood cell count; all patients, 10-80 μg/kg intravenous, succeeding 5-10 hours after administration): marked increase in white blood cell count
- Peak white blood cell count (white blood cell count; one patient, 80 μg/kg intravenous, from 6,000 cells/mm^3): 19,000 cells/mm^3
- White blood cell count after increase (white blood cell count; patient showing the least response, 20 μg/kg intravenous, from about 6,300 cells/mm^3): about 9,000 cells/mm^3
- Expected effect after induction of cardiac ischemia (bone marrow stem cells): mobilizes bone marrow stem cells rapidly

Reference: patent US7550484B2, “Chemokine receptor binding heterocyclic compounds with enhanced efficacy” (Genzyme Corporation, priority 2003, dated 2009)
